The supplement of paper PMC10307832

Key:
Assay in all cases: relative viability (nuclei count vs DMSO), 5 days (fraction); higher = more cells survive
[1] = compound: CC(C)(C)c1nc(-c2cccc(NS(=O)(=O)c3c(F)cccc3F)c2F)c(-c2ccnc(N)n2)s1 [Dabrafenib] + CC(C)C[C@H](NC(=O)[C@H](Cc1ccccc1)NC(=O)c1cnccn1)B(O)O [Bortezomib] (partner 0.002 µM)
In short: (§1)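 Five library-drug doses in √10 steps were combined with a fixed anchor-drug dose, or a single drug was given alone, by pin tool to lung cancer cell lines in 1536-well plates the day after seeding. Nuclei were stained and counted after 5 days. Relative viability is the nuclei count in treated wells over that in vehicle wells, taken as the median of duplicate plates.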

[2] = compound: CC(C)(C)c1nc(-c2cccc(NS(=O)(=O)c3c(F)cccc3F)c2F)c(-c2ccnc(N)n2)s1 [Dabrafenib] + Nc1ncn([C@H]2C[C@H](O)[C@@H](CO)O2)c(=O)n1 [Decitabine] (partner 2 µM)
In short: as §1

[3] = compound: NC(=O)c1ccc(N(C(N)=O)c2c(F)cccc2F)nc1-c1ccc(F)cc1F [VX-702] + CCNC(=O)c1noc(-c2cc(C(C)C)c(O)cc2O)c1-c1ccc(CN2CCOCC2)cc1 [Luminespib] (partner 0.01 µM)
In short: as §1

[4] = compound: NC(=O)c1ccc(N(C(N)=O)c2c(F)cccc2F)nc1-c1ccc(F)cc1F [VX-702] + Cc1nc(Nc2ncc(C(=O)Nc3c(C)cccc3Cl)s2)cc(N2CCN(CCO)CC2)n1 [Dasatinib] (partner 0.075 µM)
In short: as §1

| Cell Line | relative viability ([1]; first compound 0.009487 µM) | relative viability ([1]; first compound 0.03 µM) | relative viability ([1]; first compound 0.09487 µM) | relative viability ([1]; first compound 0.3 µM) | relative viability ([2]; first compound 0.009487 µM) | relative viability ([2]; first compound 0.03 µM) | relative viability ([2]; first compound 0.09487 µM) | relative viability ([2]; first compound 0.3 µM) | relative viability ([3]; first compound 0.02 µM) | relative viability ([3]; first compound 0.2 µM) | relative viability ([3]; first compound 0.6325 µM) | relative viability ([3]; first compound 2 µM) | relative viability ([4]; first compound 0.02 µM) | relative viability ([4]; first compound 0.2 µM) | relative viability ([4]; first compound 0.6325 µM) | relative viability ([4]; first compound 2 µM) | relative viability ([1]; first compound 0.003 µM) | relative viability ([2]; first compound 0.003 µM) |
| --- | --- | --- | --- | --- | --- | --- | --- | --- | --- | --- | --- | --- | --- | --- | --- | --- | --- | --- |
| NCI-H1734 | 0.936 | 0.549 | 0.757 | 0.828 | 0.456 | 0.471 | 0.488 | 0.337 | 0.225 | 0.228 | 0.173 | 0.203 | 0.51 | 0.413 | 0.445 | 0.371 |  |  |
| BEN | 0.936 |  | 0.696 | 0.996 | 0.865 |  | 0.721 | 0.656 | 0.374 | 0.221 | 0.49 | 0.331 | 0.337 | 0.255 | 0.317 | 0.304 |  |  |
| PC-3 [JPC-3] | 0.9 | 0.773 | 0.875 | 0.857 | 0.865 | 0.872 | 0.812 | 0.804 | 0.636 | 0.695 | 0.686 | 0.668 | 1.03 | 1.05 | 1.07 | 1.06 | 0.745 |  |
| NCI-H2228 | 0.829 | 0.859 | 0.912 | 1.03 |  |  |  |  | 0.101 | 0.144 | 0.145 | 0.124 | 0.466 | 0.499 | 0.461 | 0.535 | 0.897 |  |
| HOP-62 | 0.809 | 0.861 | 0.235 | 0.706 | 0.183 | 0.221 | 0.188 | 0.217 | 0.926 | 0.899 | 0.916 | 0.962 | 0.741 | 0.702 | 0.674 | 0.735 |  | 0.216 |
